Source: patent US8802597B2, “Herbicidal pyrimidines” (E I du Pont de Nemours and Company, priority 2003, dated 2014)

Experiments:
Assay type in all cases: in vivo
[1] = system: barnyardgrass (Echinochloa crus-galli); test: Test A pre/postemergence
Procedure, shortened: (§1)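 Visual injury scores on a 0–100 scale, 100 being complete control, were assigned roughly ten days after treatment by comparison with untreated greenhouse controls. Test chemicals, formulated with surfactant in non-phytotoxic solvent, were sprayed onto soil preemergence and onto 1–2-leaf plants 2–10 cm tall postemergence.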

[2] = system: crabgrass (Digitaria sanguinalis); test: Test A pre/postemergence
Procedure, shortened: as §1

[3] = system: redroot pigweed (Amaranthus retroflexus); test: Test A pre/postemergence
Procedure, shortened: as §1

[4] = system: giant foxtail (Setaria faberi); test: Test A pre/postemergence
Procedure, shortened: as §1

[5] = system: morningglory (Ipomoea spp.); test: Test A pre/postemergence
Procedure, shortened: as §1

[6] = system: velvetleaf (Abutilon theophrasti); test: Test A pre/postemergence
Procedure, shortened: as §1

[7] = system: barnyardgrass (Echinochloa crus-galli); test: Test E flooded paddy water application; conditions: Flood, 21 days, scale 0 to 100 (0 no effect, 100 complete control)
Procedure, shortened: (§2)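 Greenhouse pots of Tama silt loam with weeds and rice at 2.0–2.5-leaf stage, flooded to 3 cm; compounds applied directly into paddy water, depth maintained. Visual rating versus untreated controls after 21 days, 0 (no effect) to 100 (complete control); 29.5/26.7 °C, 16-h photoperiod.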

[8] = system: purple redstem (Ammannia coccinea); test: Test E flooded paddy water application; conditions: Flood, 21 days, scale 0 to 100 (0 no effect, 100 complete control)
Procedure, shortened: as §2

[9] = system: rice flatsedge (Cyperus iria); test: Test E flooded paddy water application; conditions: Flood, 21 days, scale 0 to 100 (0 no effect, 100 complete control)
Procedure, shortened: as §2

[10] = system: ducksalad (Heteranthera limosa); test: Test E flooded paddy water application; conditions: Flood, 21 days, scale 0 to 100 (0 no effect, 100 complete control)
Procedure, shortened: as §2

[11] = system: late watergrass (Echinochloa oryzicola); test: Test E flooded paddy water application; conditions: Flood, 21 days, scale 0 to 100 (0 no effect, 100 complete control)
Procedure, shortened: as §2

[12] = system: water seeded rice seedlings (Oryza sativa cv. ‘Japonica-M202’); test: Test E flooded paddy water application; conditions: Flood, 21 days, scale 0 to 100 (0 no effect, 100 complete control)
Procedure, shortened: as §2

[13] = system: junglerice (Echinochloa colona); test: Test E flooded paddy water application; conditions: Flood, 21 days, scale 0 to 100 (0 no effect, 100 complete control)
Procedure, shortened: as §2

[14] = system: bearded (brdd.) sprangletop (Leptochloa fusca ssp. fascicularis); test: Test E flooded paddy water application; conditions: Flood, 21 days, scale 0 to 100 (0 no effect, 100 complete control)
Procedure, shortened: as §2

[15] = system: transplanted rice seedlings (Oryza sativa cv. ‘Japonica-M202’); test: Test E flooded paddy water application; conditions: Flood, 21 days, scale 0 to 100 (0 no effect, 100 complete control)
Procedure, shortened: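 Response scored visually on a 0–100 scale (100 = complete control) at 21 days against untreated pots. Treatment was into paddy water 3 cm deep over silt loam, with plants at the 2.0–2.5-leaf stage, grown under 16-h light at 29.5/26.7 °C day/night.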

[16] = system: early watergrass (Echinochloa oryzoides); test: Test E flooded paddy water application; conditions: Flood, 21 days, scale 0 to 100 (0 no effect, 100 complete control)
Procedure, shortened: as §2

[17] = system: smallflower umbrella sedge (Cyperus difformis); test: Test E flooded paddy water application; conditions: Flood, 21 days, scale 0 to 100 (0 no effect, 100 complete control)
Procedure, shortened: as §2

[18] = Postemergence, 125 g ai/ha, 0 to 100 scale (0 no effect, 100 complete control)
[19] = Postemergence, 500 g ai/ha, 0 to 100 scale (0 no effect, 100 complete control)
[20] = Preemergence, 125 g ai/ha, 0 to 100 scale where 0 is no effect and 100 is complete control, approximately ten days
[21] = Preemergence, 500 g ai/ha, 0 to 100 scale where 0 is no effect and 100 is complete control, approximately ten days

Nc1nc(-c2ccc(Cl)cc2)nc(C(=O)OCc2ccccc2)c1Cl [Compound 118]
Plant response rating, Barnyardgrass [1, 18]: 0
Plant response rating, Barnyardgrass [1, 19]: 0
Plant response rating, Barnyardgrass [1, 20]: 0
Plant response rating, Barnyardgrass [1, 21]: 10
Plant response rating, Crabgrass [2, 18]: 10
Plant response rating, Crabgrass [2, 19]: 20
Plant response rating, Crabgrass [2, 20]: 10
Plant response rating, Crabgrass [2, 21]: 25
Plant response rating, Pigweed [3, 18]: 60
Plant response rating, Pigweed [3, 19]: 75
Plant response rating, Pigweed [3, 20]: 10
Plant response rating, Pigweed [3, 21]: 55
Plant response rating, Foxtail, Giant [4, 18]: 0
Plant response rating, Foxtail, Giant [4, 19]: 15
Plant response rating, Foxtail, Giant [4, 20]: 0
Plant response rating, Foxtail, Giant [4, 21]: 15
Plant response rating, Morningglory [5, 18]: 65
Plant response rating, Morningglory [5, 19]: 70
Plant response rating, Morningglory [5, 20]: 0
Plant response rating, Morningglory [5, 21]: 0
Plant response rating, Velvetleaf [6, 18]: 90
Plant response rating, Velvetleaf [6, 19]: 95
Plant response rating, Velvetleaf [6, 20]: 0
Plant response rating, Velvetleaf [6, 21]: 15
Barnyardgrass plant response rating ([7]; 32 g ai/ha): 0
Barnyardgrass plant response rating ([7]; 64 g ai/ha): 0
Barnyardgrass plant response rating ([7]; 125 g ai/ha): 0
Barnyardgrass plant response rating ([7]; 250 g ai/ha): 0
Plant response rating, Barnyardgrass ([7]; 16 g ai/ha): 0
Redstem plant response rating ([8]; 32 g ai/ha): 20
Redstem plant response rating ([8]; 64 g ai/ha): 30
Redstem plant response rating ([8]; 125 g ai/ha): 50
Redstem plant response rating ([8]; 250 g ai/ha): 85
Plant response rating, Redstem ([8]; 16 g ai/ha): 0
Flatsedge, Rice plant response rating ([9]; 32 g ai/ha): 95
Flatsedge, Rice plant response rating ([9]; 64 g ai/ha): 95
Flatsedge, Rice plant response rating ([9]; 125 g ai/ha): 95
Flatsedge, Rice plant response rating ([9]; 250 g ai/ha): 100
Plant response rating, Flatsedge, Rice ([9]; 16 g ai/ha): 85
Ducksalad plant response rating ([10]; 32 g ai/ha): 100
Ducksalad plant response rating ([10]; 64 g ai/ha): 100
Ducksalad plant response rating ([10]; 125 g ai/ha): 100
Ducksalad plant response rating ([10]; 250 g ai/ha): 100
Plant response rating, Ducksalad ([10]; 16 g ai/ha): 100
Watergrass, Late plant response rating ([11]; 32 g ai/ha): 0
Watergrass, Late plant response rating ([11]; 64 g ai/ha): 0
Watergrass, Late plant response rating ([11]; 125 g ai/ha): 0
Watergrass, Late plant response rating ([11]; 250 g ai/ha): 0
Plant response rating, Watergrass, Late ([11]; 16 g ai/ha): 0
Rice, Water Seeded plant response rating ([12]; 32 g ai/ha): 0
Rice, Water Seeded plant response rating ([12]; 64 g ai/ha): 0
Rice, Water Seeded plant response rating ([12]; 125 g ai/ha): 0
Rice, Water Seeded plant response rating ([12]; 250 g ai/ha): 0
Plant response rating, Rice, Water Seeded ([12]; 16 g ai/ha): 0
Junglerice plant response rating ([13]; 32 g ai/ha): 40
Junglerice plant response rating ([13]; 64 g ai/ha): 45
Junglerice plant response rating ([13]; 125 g ai/ha): 65
Junglerice plant response rating ([13]; 250 g ai/ha): 65
Plant response rating, Junglerice ([13]; 16 g ai/ha): 0
Sprangletop, Brdd. plant response rating ([14]; 32 g ai/ha): 0
Sprangletop, Brdd. plant response rating ([14]; 64 g ai/ha): 0
Sprangletop, Brdd. plant response rating ([14]; 125 g ai/ha): 70
Sprangletop, Brdd. plant response rating ([14]; 250 g ai/ha): 85
Plant response rating, Sprangletop, Brdd. ([14]; 16 g ai/ha): 0
Rice, Transplanted plant response rating ([15]; 32 g ai/ha): 0
Rice, Transplanted plant response rating ([15]; 64 g ai/ha): 0
Rice, Transplanted plant response rating ([15]; 125 g ai/ha): 0
Rice, Transplanted plant response rating ([15]; 250 g ai/ha): 0
Plant response rating, Rice, Transplanted ([15]; 16 g ai/ha): 0
Watergrass, Early plant response rating ([16]; 32 g ai/ha): 0
Watergrass, Early plant response rating ([16]; 64 g ai/ha): 0
Watergrass, Early plant response rating ([16]; 125 g ai/ha): 0
Watergrass, Early plant response rating ([16]; 250 g ai/ha): 0
Plant response rating, Watergrass, Early ([16]; 16 g ai/ha): 0
Sedge, Umbrella plant response rating ([17]; 32 g ai/ha): 95
Sedge, Umbrella plant response rating ([17]; 64 g ai/ha): 100
Sedge, Umbrella plant response rating ([17]; 125 g ai/ha): 100
Sedge, Umbrella plant response rating ([17]; 250 g ai/ha): 100
Plant response rating, Sedge, Umbrella ([17]; 16 g ai/ha): 85
